Laboratory results taken from ChEMBL document CHEMBL4616632, “Discovery of Cyclic Boronic Acid QPX7728, an Ultrabroad-Spectrum Inhibitor of Serine and Metallo-β-lactamases” (J Med Chem, 2020).

Assays:
[1] = system: Escherichia coli; assay: Inhibition of Escherichia coli KP308 SHV-5 assessed as minimum concentration of compound required to reduce the MIC of aztreonam to 4 ug/ml
[2] = Half life in rat at 100 mg/kg, po administered via gavage by HPLC/MS analysis; type: ADME, organism-based; conditions: in vivo
[3] = system: Klebsiella pneumoniae; assay: Inhibition of Klebsiella pneumoniae KP1009 CTX-M-15 assessed as minimum concentration of compound required to reduce the MIC of aztreonam to 4 ug/ml
[4] = molecular target: Endothelin-converting enzyme 1 (Homo sapiens, UniProt P42892); assay: Inhibition of mammalian ECE-1 (unknown origin) using MCA-RPPGFSAFK(DNP)-OH as substrate preincubated for 10 mins followed by substrate addition measured after 30 mins
Chain of Endothelin-converting enzyme 1 (P42892 whole entry): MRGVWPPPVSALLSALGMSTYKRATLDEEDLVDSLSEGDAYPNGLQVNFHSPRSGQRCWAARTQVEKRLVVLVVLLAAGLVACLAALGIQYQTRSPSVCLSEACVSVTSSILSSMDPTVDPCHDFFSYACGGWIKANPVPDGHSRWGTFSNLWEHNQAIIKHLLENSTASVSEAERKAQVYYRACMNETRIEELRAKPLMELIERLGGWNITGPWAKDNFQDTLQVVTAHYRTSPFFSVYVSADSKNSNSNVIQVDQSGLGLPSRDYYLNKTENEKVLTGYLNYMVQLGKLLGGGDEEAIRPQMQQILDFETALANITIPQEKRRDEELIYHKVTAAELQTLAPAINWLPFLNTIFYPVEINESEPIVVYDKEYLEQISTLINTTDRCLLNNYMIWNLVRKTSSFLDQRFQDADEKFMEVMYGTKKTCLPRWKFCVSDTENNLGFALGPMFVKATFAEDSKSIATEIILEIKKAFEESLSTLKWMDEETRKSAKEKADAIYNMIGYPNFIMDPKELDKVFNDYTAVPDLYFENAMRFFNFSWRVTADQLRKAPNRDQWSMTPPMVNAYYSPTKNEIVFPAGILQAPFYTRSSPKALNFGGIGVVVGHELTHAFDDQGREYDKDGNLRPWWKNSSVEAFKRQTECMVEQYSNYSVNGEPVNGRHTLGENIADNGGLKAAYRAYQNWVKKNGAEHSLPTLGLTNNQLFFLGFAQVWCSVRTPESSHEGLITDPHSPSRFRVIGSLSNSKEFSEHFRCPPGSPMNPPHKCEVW

[5] = system: Klebsiella pneumoniae; assay: Potentiation of meropenem-induced antibacterial activity against carbapenem-resistant Klebsiella pneumoniae assessed as meropenem MIC90 at 8 ug/ml by broth microdilution method (Rvb > 32 ug/ml); type: functional
[6] = Clearance in rat at 300 mg/kg, po administered via gavage by HPLC/MS analysis; type: ADME, organism-based; conditions: in vivo
[7] = system: Klebsiella pneumoniae; assay: (§1) Potentiation of meropenem-induced bacteriostatic activity against carbapenem-resistant Klebsiella pneumoniae KP1244 harboring KPC-3, SHV-11, and SHV-12 infected in Swiss-Webster mouse model of neutropenic thigh infection assessed as log change in bacterial count in thigh at 5 mg/kg, ip administered at 2 hrs interval for 24 hrs starting from 2 hr post infection and measured post last dose (reference value: 0.62 log10CFU); type: functional
[8] = Clearance in rat at 30 mg/kg, po administered via gavage by HPLC/MS analysis; type: ADME, organism-based; conditions: in vivo
[9] = system: Pseudomonas aeruginosa; assay: Potentiation of cefepime-induced antibacterial activity against Pseudomonas aeruginosa assessed as cefepime MIC50 at 8 ug/ml by broth microdilution method (reference value: 4 ug/ml); type: functional
[10] = AUC in rat at 1000 mg/kg, po administered via gavage by HPLC/MS analysis; type: ADME, organism-based; conditions: in vivo
[11] = Clearance in rat at 100 mg/kg, po administered via gavage by HPLC/MS analysis; type: ADME, organism-based; conditions: in vivo
[12] = molecular target: Urokinase-type plasminogen activator (Homo sapiens, UniProt P00749); assay: Inhibition of mammalian urokinase (unknown origin) using NGK-pNA as substrate preincubated for 10 mins followed by substrate addition measured after 30 mins
[13] = system: Klebsiella pneumoniae; assay: Potentiation of cefepime-induced antibacterial activity against carbapenem-resistant Klebsiella pneumoniae assessed as cefepime MIC90 at 8 ug/ml by broth microdilution method (Rvb > 32 ug/ml); type: functional
[14] = system: Klebsiella pneumoniae; assay: Inhibition of Klebsiella pneumoniae KP1054 VIM-1 assessed as minimum concentration of compound required to reduce the MIC of biapenem to 1 ug/ml
[15] = Half life in rat at 100 mg/kg, iv administered as infusion for 0.5 hrs by HPLC/MS analysis; type: ADME, organism-based; conditions: in vivo
[16] = system: Enterobacteriaceae; assay: Inhibition of OXA-48 in carbapenem-resistant Enterobacteriaceae assessed as potentiation of cefepime-induced antibacterial activity by measuring cefepime MIC50 at 8 ug/ml by broth microdilution method (Rvb > 32 ug/ml)
[17] = system: Escherichia coli; assay: Inhibition of Escherichia coli ECM6619 TEM-10 assessed as minimum concentration of compound needed to reduce the MIC of aztreonam to 4 ug/ml
[18] = system: Enterobacterales; assay: Potentiation of cefepime-induced antibacterial activity against Enterobacterales assessed as cefepime MIC50 at 8 ug/ml by broth microdilution method (reference value: 32 ug/ml); type: functional
[19] = AUC in rat at 300 mg/kg, po administered via gavage by HPLC/MS analysis; type: ADME, organism-based; conditions: in vivo
[20] = system: Pseudomonas aeruginosa; assay: Potentiation of ceftolozane-induced antibacterial activity against Pseudomonas aeruginosa assessed as ceftolozane MIC50 at 8 ug/ml by broth microdilution method (reference value: 0.5 ug/ml); type: functional
[21] = molecular target: Interstitial collagenase (Homo sapiens, UniProt P03956); assay: Inhibition of mammalian MMP-1 (unknown origin) using McaPLGLDpaAR-NH2 as substrate preincubated for 10 mins followed by substrate addition measured after 30 mins
Chain of Interstitial collagenase (P03956 whole entry): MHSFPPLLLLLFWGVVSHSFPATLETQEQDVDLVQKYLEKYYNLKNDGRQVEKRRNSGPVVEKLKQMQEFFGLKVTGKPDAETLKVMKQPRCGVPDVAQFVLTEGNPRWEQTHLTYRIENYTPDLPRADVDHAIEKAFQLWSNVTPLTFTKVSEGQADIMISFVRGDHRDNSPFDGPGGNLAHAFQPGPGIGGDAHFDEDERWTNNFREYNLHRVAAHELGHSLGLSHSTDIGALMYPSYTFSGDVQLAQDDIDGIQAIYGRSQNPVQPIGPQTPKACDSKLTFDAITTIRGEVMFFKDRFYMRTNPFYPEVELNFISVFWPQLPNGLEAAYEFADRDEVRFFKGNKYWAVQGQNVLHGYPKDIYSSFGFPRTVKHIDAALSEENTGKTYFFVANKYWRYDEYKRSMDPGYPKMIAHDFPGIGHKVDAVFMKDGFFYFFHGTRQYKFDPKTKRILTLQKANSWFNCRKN

[22] = system: Enterobacteriaceae; assay: Inhibition of NDM/VIM in carbapenem-resistant Enterobacteriaceae assessed as potentiation of ceftolozane-induced antibacterial activity by measuring ceftolozane MIC90 at 8 ug/ml by broth microdilution method (Rvb > 32 ug/ml)
[23] = Clearance in rat at 300 mg/kg, iv administered as infusion for 0.5 hrs by HPLC/MS analysis; type: ADME, organism-based; conditions: in vivo
[24] = system: Enterobacteriaceae; assay: Inhibition of NDM/VIM in carbapenem-resistant Enterobacteriaceae assessed as potentiation of meropenem-induced antibacterial activity by measuring meropenem MIC90 at 8 ug/ml by broth microdilution method (Rvb > 32 ug/ml)
[25] = system: Acinetobacter baumannii; assay: Potentiation of meropenem-induced antibacterial activity against carbapenem-resistant Acinetobacter baumannii assessed as meropenem MIC50 at 8 ug/ml by broth microdilution method (Rvb > 32 ug/ml); type: functional
[26] = system: Pseudomonas aeruginosa; assay: Potentiation of ceftolozane-induced antibacterial activity against Pseudomonas aeruginosa assessed as ceftolozane MIC90 at 8 ug/ml by broth microdilution method (reference value: 4 ug/ml); type: functional
[27] = system: Escherichia coli; assay: Inhibition of Escherichia coli ECM6625 SHV-5 assessed as minimum concentration of compound needed to reduce the MIC of aztreonam to 4 ug/ml
[28] = Oral bioavailability in rat at 300 mg/kg administered via gavage by HPLC/MS analysis; type: ADME, organism-based; conditions: in vivo
[29] = system: Enterobacteriaceae; assay: Potentiation of meropenem-induced antibacterial activity against carbapenem-resistant Enterobacteriaceae assessed as meropenem MIC90 at 8 ug/ml by broth microdilution method (reference value: 16 ug/ml); type: functional
[30] = AUC in rat at 30 mg/kg, po administered via gavage by HPLC/MS analysis; type: ADME, organism-based; conditions: in vivo
[31] = Inhibition of recombinant Escherichia coli SHV-12 using nitrocefin as substrate preincubated for 10 mins followed by substrate addition measured every 10 secs for 10 mins by spectrophotometrically analysis
[32] = Lipophilicity, log D of the compound at pH 7.4; type: physicochemical; conditions: buffer
[33] = system: Klebsiella pneumoniae; assay: as §1, with “25” for “5”; type: functional
[34] = AUC in rat at 10 mg/kg, iv administered as infusion for 0.5 hrs by HPLC/MS analysis; type: ADME, organism-based; conditions: in vivo
[35] = Oral bioavailability in rat at 100 mg/kg administered via gavage by HPLC/MS analysis; type: ADME, organism-based; conditions: in vivo
[36] = molecular target: Angiotensin-converting enzyme 2 (Homo sapiens, UniProt Q9BYF1); assay: Inhibition of mammalian ACE-2 (unknown origin) using Mca-APK(Dnp) as substrate preincubated for 10 mins followed by substrate addition measured after 30 mins
Chain of Angiotensin-converting enzyme 2 (Q9BYF1 whole entry): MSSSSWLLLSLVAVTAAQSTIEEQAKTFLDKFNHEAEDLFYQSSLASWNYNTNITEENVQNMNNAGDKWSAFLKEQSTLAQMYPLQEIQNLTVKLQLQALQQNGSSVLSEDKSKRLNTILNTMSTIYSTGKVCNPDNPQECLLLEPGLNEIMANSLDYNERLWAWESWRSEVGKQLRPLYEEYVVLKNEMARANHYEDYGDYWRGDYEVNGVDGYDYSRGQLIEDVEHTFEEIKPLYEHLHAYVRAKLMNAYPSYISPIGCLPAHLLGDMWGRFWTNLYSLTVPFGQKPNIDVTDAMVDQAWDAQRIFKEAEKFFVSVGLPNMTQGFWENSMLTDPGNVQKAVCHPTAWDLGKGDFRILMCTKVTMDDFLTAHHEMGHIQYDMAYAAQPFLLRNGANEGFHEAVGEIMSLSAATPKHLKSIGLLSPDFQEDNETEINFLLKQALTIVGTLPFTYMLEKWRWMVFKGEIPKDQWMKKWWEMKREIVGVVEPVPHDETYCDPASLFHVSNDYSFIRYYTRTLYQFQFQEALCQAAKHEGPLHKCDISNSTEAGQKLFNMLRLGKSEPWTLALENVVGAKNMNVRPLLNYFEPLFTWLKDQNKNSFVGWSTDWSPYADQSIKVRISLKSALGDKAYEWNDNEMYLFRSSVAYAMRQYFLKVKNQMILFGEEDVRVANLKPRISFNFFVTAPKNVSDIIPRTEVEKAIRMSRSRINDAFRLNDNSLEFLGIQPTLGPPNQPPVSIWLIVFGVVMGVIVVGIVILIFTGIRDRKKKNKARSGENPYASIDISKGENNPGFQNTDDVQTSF

[37] = system: Acinetobacter baumannii; assay: Inhibition of Acinetobacter baumannii AB1053 OXA-72 assessed as minimum concentration of compound needed to reduce the MIC of meropenem to 8 ug/ml
[38] = system: Klebsiella pneumoniae; assay: Potentiation of meropenem-induced antibacterial activity in Klebsiella pneumoniae KP1244 by measuring meropenem MIC at 8 ug/ml by broth microdilution method (Rvb >64 ug/ml); type: functional

SMILES: O=C(O)c1c(F)ccc2c1OB(O)[C@@H]1C[C@H]21 [XERUBORBACTAM]
- MEC [1]: 0.3 µg/mL
- half-life [2]: 194 min
- MEC [3]: 0.3 µg/mL
- IC50 [4]: 431 µM
- MIC90 [5]: 0.125 µg/mL
- CL/F [6]: 28.5 mL/min/kg
- Activity [7]: -0.88 log10CFU
- CL/F [8]: 15.2 mL/min/kg
- MIC50 [9]: 2 µg/mL
- AUC [10]: 504 µg·h/mL
- CL/F [11]: 18.5 mL/min/kg
- IC50 [12]: > 1 mM
- MIC90 [13]: 0.25 µg/mL
- MEC [14]: 0.16 µg/mL
- half-life [15]: 87.6 min
- MIC50 [16]: 0.125 µg/mL
- MEC [17]: 0.16 µg/mL
- MIC50 [18]: ≤ 0.06 µg/mL
- AUC [19]: 177 µg·h/mL
- MIC50 [20]: 0.5 µg/mL
- IC50 [21]: > 1 mM
- MIC90 [22]: > 32 µg/mL
- clearance [23]: 8.17 mL/min/kg
- MIC90 [24]: 2 µg/mL
- MIC50 [25]: 0.5 µg/mL
- MIC90 [26]: 1 µg/mL
- MEC [27]: 0.3 µg/mL
- bioavailability [28]: 28%
- MIC90 [29]: 0.25 µg/mL
- AUC [30]: 34000 ng·h/mL
- Ki [31]: 0.74 nM
- logD [32]: -2.85
- Activity [33]: -1.15 log10CFU
- AUC at 0.5 h [34]: 35200 ng·h/mL
- bioavailability [35]: 42.6%
- IC50 [36]: > 1 mM
- MEC [37]: 0.6 µg/mL
- MIC [38]: 0.25 µg/mL
